Results: patent US6281354A, “Analogs of duocarmycin and cc-1065” (The Scripps Research Institute, priority 1999, dated 2001)
Like-named read-outs stand apart in the source and are kept apart here.

Experiments:
w794 DNA [1] = experiment: DNA alkylation (thermal strand cleavage, PAGE) within w794 DNA; assay type: biochemical, SV40
w794 DNA [2] = experiment: Relative rates of DNA alkylation for (+)-1, 53 and 54 at the w794 5'-AATTA site; assay type: biochemical, SV40; details: for concentration dependence of the rate of DNA alkylation: 10^-4 -10^-6 M
Method: Modifications in the Trimethoxyindole Subunit: Role of the Methoxy Substituents. DNA alkylation by the natural enantiomers of 53-56 were compared with that of 1 in w794 DNA.
Relative Rates of DNA Alkylation for (+)-1, 53, and 54. Following the procedure detailed above, Eppendorf tubes containing 5' end-labeled w794 DNA (9 μL) in TE buffer (pH 7.5) were treated with (+)-duocarmnycin SA, 53, or 54 (1 μL, 10^-5 M in DMSO). […] The solutions were mixed and incubated at 25° C. for 1, 3, 6, 12, 24, 48, and 72 h, respectively. Subsequent isolation of the alkylated DNA by EtOH precipitation, resuspension in TE buffer (10 μL, pH 7.5), thermolysis (30 min, 100° C.), concurrent PAGE, and autoradiography were conducted as detailed above. The relative rate for the alkylation at the 5'-AATTA site was derived from the slopes of the plots of percent integrated optical density (IOD) of the high affinity alkylation site cleavage bands versus time.

w836 DNA = experiment: DNA alkylation sites and relative rates within the six-base A sequence (5'-AAAAAA) of w836 DNA; assay type: biochemical, SV40; details: for alkylated adenines within six-base A-rich sequence of w836 DNA / AT-rich binding site covered in w836 DNA: 5'-AAAAAA
[3] = system: duplex DNA (w794, w836, c988, c820, c1346); assay type: biochemical, SV40; details: for sequence preference at the alkylation site: consensus alkylation sequence; for alkylation of individual three-base sequences: 5'-TTA or 5'-ATA
w794 DNA [4] = details: pH 7.5, earlier studies; cited from earlier work
[5] = In vitro cytotoxic activity; details: for cytotoxic potency, effect of terminal N^2 substituent (18, 23, 24 compared): natural and unnatural enantiomers
[6] = natural enantiomers, 25° C., 24 h
[7] = 5×10^-6 M agent (so in the source), 25° C., w836 5'-AAAAAA

COC(=O)c1cc2c([nH]1)C(=O)C=C1N(C(=O)c3cc4ccccc4[nH]3)CC3CC123 (single isomer, unassigned) [compound 53, Methyl 2-[(Indol-2-yl)carbonyl]-1,2,8,8a-tetrahydrocyclopropa[c]pyrrolo[3,2-e]indol-4-one-6-carboxylate]
less effective at DNA alkylation than duocarmycin SA (w794 DNA [1]; (+) enantiomer): 6-10 ×
less efficient DNA alkylation than 1 (w794 DNA [1]; [6]): 20 ×
concentration dependence of the rate of DNA alkylation (w794 DNA [2]): independent of agent concentration

COC(=O)c1cc2c([nH]1)C(=O)C=C1N(C(=O)c3cc4cc(OC)ccc4[nH]3)CC3CC123 (single isomer, unassigned) [compound 54, Methyl 2-[(5-Methoxyindol-2-yl)carbonyl]-1,2,8,8a-tetrahydrocyclopropa[c]pyrrolo[3,2-e]indol-4-one-6-carboxylate]
DNA alkylation compared with duocarmycin SA (1), in words (w794 DNA [1]; [6]): essentially indistinguishable from 1
concentration dependence of the rate of DNA alkylation (w794 DNA [2]): independent of agent concentration
relative rate of DNA alkylation κrel versus 53 (w794 DNA [2]; 10^-5 M, 25° C., 1-72 h, 5'-d(AATTA)): 18-33

COC(=O)c1cc2c([nH]1)C(=O)C=C1N(C(=O)c3cc4ccc(OC)cc4[nH]3)CC3CC123 (single isomer, unassigned) [compound 55, Methyl 2-[(6-Methoxyindol-2-yl)carbonyl]-1,2,8,8a-tetrahydrocyclopropa[c]-pyrrolo[3,2-e]indol-4-one-6-carboxylate]
less efficient DNA alkylation than 1 (w794 DNA [1]; [6]): 5-10 ×

COC(=O)c1cc2c([nH]1)C(=O)C=C1N(C(=O)c3cc4cccc(OC)c4[nH]3)CC3CC123 (single isomer, unassigned) [compound 56, Methyl 2-[(7-Methoxyindol-2-yl)carbonyl]-1,2,8,8a-tetrahydrocyclopropa[c]pyrrolo[3,2-e]indol-4-one-6-carboxylate]
less efficient DNA alkylation than 1 (w794 DNA [1]; [6]): 5-10 ×

COC(=O)c1cc2c3c(ccc2[nH]1)N(C(=O)c1cc2c([nH]1)C(=O)C=C1N(C(=O)c4cc5c6c(ccc5[nH]4)N(C(N)=O)CC6)CC4CC124)CC3 (single isomer, unassigned) [ent-(-)-30]
alkylated adenines within six-base A-rich sequence of w836 DNA (w836 DNA): alkylated those central to the sequence
sequence preference at the alkylation site [3]: 5'-AAA>5'-AAT≥5'TAA>5 TAT

COC(=O)c1cc2c([nH]1)C(=O)C=C1N(C(=O)c3cc4c5c(ccc4[nH]3)N(C(=O)c3cc4c6c(ccc4[nH]3)N(C(N)=O)CC6)CC5)CC3CC123 (single isomer, unassigned) [ent-(-)-DSA-CDPI2]
high affinity alkylation site in w794 DNA (w794 DNA [1]): 5'-AATTT
high affinity alkylation site in w794 DNA (w794 DNA [1]; listed as (-)-DSA-CDPI2): 5'-AATTT
AT-rich binding site covered in w836 DNA (w836 DNA): 5 base-pair
alkylated adenines within six-base A-rich sequence of w836 DNA (w836 DNA): 5' terminal adenines
time required to approach the same level of DNA alkylation as (+)-DSA-CDPI2 (w836 DNA; 5×10^6 M agent (so in the source), 25° C., w836 5'-AAAAAA): 6 h
AT-rich adenine N3 alkylation selectivity (size of site) [3]: 5 base-pair

COC(=O)c1cc2c3c(ccc2[nH]1)N(C(=O)c1cc2c([nH]1)C(=O)C=C1N(C(=O)c4cc5c6c(ccc5[nH]4)N(C(N)=O)CC6)CC4CC124)CC3 (single isomer, unassigned; (+)) [(+)-30]
alkylated adenines within six-base A-rich sequence of w836 DNA (w836 DNA): alkylated those central to the sequence
AT-rich adenine N3 alkylation selectivity (size of site) [3]: 5 base-pair
sequence preference at the alkylation site [3]: 5'-AAA>5'-AAT≥5'TAA>5 TAT

COC(=O)c1cc2c([nH]1)C(=O)C=C1N(C(=O)c3cc4c5c(ccc4[nH]3)N(C(N)=O)CC5)CC3CC123 (single isomer, unassigned; (+)) [(+)-DSA-CDPI1]
alkylation of the minor w794 site (5'-CAAAG) (w794 DNA [1]): prominently alkylates
concentration required at minor site (5'-CAAAG) relative to major 5'-AATTA site (w794 DNA [1]): 10 x

COC(=O)c1cc2c([nH]1)C(=O)C=C1N(C(=O)c3cc4c5c(ccc4[nH]3)N(C(=O)c3cc4c6c(ccc4[nH]3)N(C(N)=O)CC6)CC5)CC3CC123 (single isomer, unassigned; (+)) [(+)-DSA-CDPI2]
alkylation of the minor w794 site (5'-CAAAG) (w794 DNA [1]): failed to alkylate
high affinity alkylation site in w794 DNA (w794 DNA [1]): 5'-AATTA
AT-rich binding site covered in w836 DNA (w836 DNA): 5 base-pair
alkylated adenines within six-base A-rich sequence of w836 DNA (w836 DNA): only the 3' adenines
time after which extensive DNA alkylation is exhibited (w836 DNA; [7]): 1 to 5 min
AT-rich adenine N3 alkylation selectivity (size of site) [3]: 5 base-pair
alkylation of individual three-base sequences [3]: unusually effective alkylation of 5'-TTA
sequence preference at the alkylation site [3]: 5'-AAA>5'-TTA>5'-TAA≥5'-ATA

COC(=O)c1cc2c3c(ccc2[nH]1)N(C(=O)c1cc2c4c(ccc2[nH]1)N(C(=O)c1cc2c([nH]1)C(=O)C=C1N(C(=O)OC(C)(C)C)C[C@H]5C[C@]125)CC4)CC3 [(+)-CDPI2 -DSA]
alkylation at the natural-enantiomer high affinity site (5'-AATTA) (w794 DNA [1]): without detectable alkylation
high affinity alkylation site in w794 DNA (w794 DNA [1]): 5'-AATTT
AT-rich adenine N3 alkylation selectivity (size of site) [3]: 5 base-pair
sequence preference at the alkylation site [3]: 5'-AAA>5'-AAT≥5'-TAA>5'-TAT

COc1cc2cc(C(=O)N3CC4CC45C3=CC(=O)c3ccccc35)[nH]c2c(OC)c1OC (stereo not shown) [CBI-TMI]
relative rate of DNA alkylation at w794 high affinity site (w794 DNA [4]): 1.0 ×

COc1ccc2c(c1)C13CC1CN(C(=O)c1cc4cc(OC)c(OC)c(OC)c4[nH]1)C3=CC2=O (stereo not shown) [MCBI-TMI]
relative rate of DNA alkylation at w794 high affinity site (w794 DNA [4]): 1.9 ×

COC(=O)c1cc2c3c(ccc2[nH]1)N(C(=O)c1cc2c4c(ccc2[nH]1)N(C(=O)c1cc2c([nH]1)C(=O)C=C1N(C(=O)OC(C)(C)C)CC5CC125)CC4)CC3 (stereo not shown) [compound 20, 6-[7-[Methyl 1,2-Dihydro-(3H-pyrrolo[3,2-e]indole-3-yl)carbonyl-7-carboxylate]1,2-dihydro-(3H-pyrrolo[3,2-e]indole-3-yl)carbonyl]-2-((tert-butyloxy)carbonyl)-1,2,8,8a-tetrahydrocyclopropa[c]pyrrolo[3,2-e]indol-4-one]
alkylated adenines within six-base A-rich sequence of w836 DNA (w836 DNA): the natural enantiomer of 20 alkylated the same sites as ent-(-)-DSA-CDPI2 while the unnatural enantiomer of 20 alkylated the same sites as the natural enantiomer (+)-DSA-CDPI2
time required to reach a detectable and diminished level of DNA alkylation (w836 DNA; 5×10^-6 M agent (so in the source), 25° C., both enantiomers): 72 h
more potent cytotoxicity than simple derivatives N--BOC-DSA (4) and N--Ac-DSA ([5]; natural enantiomers): less than 10 ×
cytotoxic potency of the two enantiomers compared ([5]; natural versus unnatural enantiomer): nearly equipotent

COC(=O)c1cc2cc(NC(=O)c3cc4cc(NC(=O)c5cc6c([nH]5)C(=O)C=C5N(C(C)=O)CC7CC567)ccc4[nH]3)ccc2[nH]1 (stereo not shown) [compound 23, N-{2-[N-(2-Methoxycarbonyl-1H-indol-5-yl)]carbamoyl-1H-indol-5-yl}-2-acetyl-1,2,8,8a-tetrahydrocyclopropa[c]pyrrolo[3,2-e]indole4-one-6-carboxamide]
comparison of DNA alkylation selectivity [3]: no differences in their DNA alkylation selectivity
less efficient at alkylating DNA than DSA-indole2 [3]: ca. 100 ×
more efficient DNA alkylation than the BOC derivative 18 [3]: 2-5 ×
slower DNA alkylation than DSA-indole2 [3]: ca. 1000 ×
unnatural enantiomer less effective at DNA alkylation than natural enantiomer [3]: approximately 10 ×
cytotoxic potency, effect of terminal N^2 substituent (18, 23, 24 compared) [5]: essentially indistinguishable
cytotoxic potency compared with simple derivatives N--BOC-DSA (4) and N--Ac-DSA ([5]; natural enantiomers): essentially indistinguishable

COC(=O)c1cc2cc(NC(=O)c3cc4cc(NC(=O)c5cc6c([nH]5)C(=O)C=C5NCC7CC567)ccc4[nH]3)ccc2[nH]1 (stereo not shown) [compound 24]
DNA alkylation efficiency relative to 18 [3]: about an order of magnitude less efficient
comparison of DNA alkylation selectivity [3]: no differences in their DNA alkylation selectivity
less efficient at alkylating DNA than DSA-indole2 [3]: ca. 100 ×
slower DNA alkylation than DSA-indole2 [3]: ca. 1000 ×
unnatural enantiomer less effective at DNA alkylation than natural enantiomer [3]: approximately 10 ×
cytotoxic potency, effect of terminal N^2 substituent (18, 23, 24 compared) [5]: noticeably less potent

COC(=O)c1cc2c3c(ccc2[nH]1)N(C(=O)c1cc2c([nH]1)C(=O)C=C1N(C(=O)c4cc5c6c(ccc5[nH]4)N(C(N)=O)CC6)CC4CC124)CC3 (stereo not shown) [compound 30]
time after which extensive DNA alkylation is exhibited (w836 DNA; [7]): 1 to 5 min
AT-rich adenine N3 alkylation selectivity (size of site) [3]: 5 base-pair
cytotoxic potency compared with typical agents [5]: essentially equipotent with the typical agents

COc1c(O)c2c(c3cc(C(=O)N4CCc5c4c(O)c(OC)c4[nH]c(C(=O)N6CC7CC78C6=CC(=O)c6[nH]cc(C)c68)cc54)[nH]c13)CCN2C(N)=O (stereo not drawn) [ent-(-)-CC-1065, reference compound]
high affinity alkylation site in w794 DNA (w794 DNA [1]): 5'-AATTT
AT-rich adenine N3 alkylation selectivity (size of site) [3]: 5 base-pair

COC(=O)c1cc2c3c(ccc2[nH]1)N(C(=O)c1cc2c4c(ccc2[nH]1)N(C(=O)c1cc2c([nH]1)C(=O)C=C1N(C(=O)OC(C)(C)C)C[C@@H]5C[C@@]125)CC4)CC3 [ent-(-)-CDPI2 -DSA]
high affinity alkylation site in w794 DNA (w794 DNA [1]): 5'-AATTA
AT-rich adenine N3 alkylation selectivity (size of site) [3]: 5 base-pair
alkylation of individual three-base sequences [3]: under represented alkylation of 5'-ATA
sequence preference at the alkylation site [3]: 5'-AAA>5'-TAA>5'-TTA>5'-ATA
